Laboratory results from the supplement of paper PMC10331698.
± gives the standard deviation of the averaged measurements.

Tests used:
Assay in all cases: level (log10 ratio to DMSO vehicle control); higher = higher biomarker level / cell amount than vehicle control
[1] = compound: COC(=O)C(F)(F)C(F)(F)OC(F)(C(F)(F)F)C(F)(F)OC(F)=C(F)F [Methyl perfluoro(3-(1-ethenyloxypropan-2-yloxy)propanoate)]; details: in DMSO
Experimental: (§1)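 BioMAP Diversity Plus panel of 12 human primary cell co-culture systems (3C, 4H, LPS, SAg, BT, BF4T, BE3C, CASM3C, HDF3CGF, KF3CT, MyoF, Mphg). Compounds were added 1 h before stimulation and left for 24 h (MyoF 48 h; BT 72 h for soluble read-outs or 6 d for IgG). Biomarkers were read by ELISA, cytotoxicity by SRB, PBMC viability and proliferation by Alamar Blue. Each well value was divided by the mean of 8 DMSO control wells on the same plate and log10 transformed; duplicate blinded samples were tested at 4 concentrations.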

[2] = compound: FC(F)(F)C(F)(F)C(F)(F)CC1CO1 [1H,1H-Heptafluorobutyl epoxide]; details: in DMSO
Experimental: as §1

[3] = compound: NS(=O)(=O)C(F)(F)C(F)(F)C(F)(F)C(F)(F)C(F)(F)C(F)(F)F [Perfluorohexanesulfonamide]; details: in DMSO
Experimental: as §1

[4] = compound: C=CC(=O)OCC(F)(F)C(F)(F)C(F)(F)COC(=O)C=C [1H,1H,5H,5H-Perfluoro-1,5-pentanediol diacrylate]; details: 6700 nM; in DMSO
Experimental: as §1

[5] = compound: NC(=O)C(F)(F)C(F)(F)C(F)(F)C(F)F; details: in DMSO
Experimental: as §1

[6] = compound: C=C(C)C(=O)OCCC(F)(F)C(F)(F)C(F)(F)C(F)(F)C(F)(F)C(F)(F)F [6:2 Fluorotelomer methacrylate]; details: in DMSO
Experimental: as §1

Row | Test System | level (log10) ([1]; 6700 nM) | level (log10) ([1]; 20000 nM) | level (log10) ([2]; 6700 nM) | level (log10) ([2]; 20000 nM) | level (log10) ([2]; 60000 nM) | level (log10) ([3]; 6700 nM) | level (log10) ([3]; 20000 nM) | level (log10) ([3]; 60000 nM) | level (log10) [4] | level (log10) ([5]; 6700 nM) | level (log10) ([5]; 20000 nM) | level (log10) ([5]; 60000 nM) | level (log10) ([6]; 6700 nM) | level (log10) ([6]; 20000 nM) | level (log10) ([6]; 60000 nM)
1 | lMphg:CXCL8/IL-8 | 0.135 | 0.211 ± 0.014 | -0.0265 ± 0.015 | -0.019 ± 0.021 | -0.0105 ± 0.029 | 0.05 ± 0.014 | 0.083 ± 0.011 | 0.146 ± 0.0085 | 0.03 ± 0.0099 | -0.0235 ± 0.0078 | -0.0225 ± 0.028 | 0.0185 ± 0.047 | 0.0275 ± 0.005 | 0.0205 ± 0.0092 | 0.0425 ± 0.026
2 | CASM3C:CD142/Tissue Factor | 0.0075 ± 0.022 | 0.0285 ± 0.012 | -0.0165 ± 0.016 | -0.037 ± 0.027 | -0.039 ± 0.02 | -0.0145 ± 0.023 | -0.0275 ± 0.012 | 0.0175 ± 0.018 | -0.0325 ± 0.015 | -0.01 ± 0.017 | -0.001 ± 0.011 | -0.0075 ± 0.00071 | -0.0075 ± 0.033 | -0.0175 ± 0.029 | -0.0035 ± 0.0078
3 | MyoF:Collagen I | -0.007 ± 0.011 | 0.0095 ± 0.019 | 0.013 ± 0.018 | -0.0025 ± 0.00071 | -0.0105 ± 0.012 | 0.024 ± 0.013 | 0.0515 ± 0.013 | 0.0495 ± 0.022 | -0.0165 ± 0.0035 | -0.0115 ± 0.015 | -0.002 ± 0.02 | 0.006 ± 0.017 | -0.0085 ± 0.0092 | -0.0095 ± 0.00071 | -0.009 ± 0.0099
4 | CASM3C:CD141/Thrombomodulin | -0.0085 ± 0.005 | 0.023 ± 0.018 | -0.0145 ± 0.047 | -0.0265 ± 0.018 | 0.001 ± 0.035 | -0.022 ± 0.025 | -0.0305 ± 0.021 | 0.016 ± 0.014 | 0.081 ± 0.0042 | -0.008 ± 0.0042 | 0.0085 ± 0.025 | 0.0085 ± 0.0092 | 0.016 ± 0.071 | 0.021 ± 0.067 | 0.03 ± 0.081
5 | MyoF:TIMP-1 | 0.018 ± 0.011 | 0.0085 ± 0.039 | -0.025 ± 0.018 | -0.023 ± 0.035 | -0.0125 ± 0.015 | 0.019 ± 0.037 | 0.017 ± 0.045 | 0.021 ± 0.051 | -0.002 ± 0.0014 | -0.031 ± 0.011 | -0.024 ± 0.023 | -0.0505 ± 0.00071 | -0.036 ± 0.062 | -0.0135 ± 0.066 | -0.017 ± 0.041
6 | BE3C:SRB | -0.005 ± 0.0042 | 0.001 ± 0.0057 | -0.0035 ± 0.00071 | 0.0015 ± 0.00071 | 0.007 | -0.0065 ± 0.00071 | -0.022 | -0.058 ± 0.0099 | -0.0035 ± 0.0021 | -0.0035 ± 0.0035 | 0.0005 ± 0.005 | -0.0055 ± 0.0021 | 0.0015 ± 0.0035 | 0.003 ± 0.0028 | 0.0025 ± 0.0021
7 | 4H:SRB | -0.0015 ± 0.00071 | 0.007 ± 0.014 | 0.008 ± 0.023 | 0.007 ± 0.0057 | -0.02 ± 0.0071 | -0.01 ± 0.0085 | -0.028 ± 0.0099 | -0.101 ± 0.0014 | -0.0105 ± 0.019 | -0.0195 ± 0.0078 | -0.0055 ± 0.005 | -0.017 ± 0.021 | -0.0005 ± 0.0035 | 0.0005 ± 0.016 | 0.008 ± 0.014
8 | lMphg:SRB | 0.0025 ± 0.011 | 0.0025 ± 0.011 | -0.001 ± 0.0028 | 0.0025 ± 0.0035 | -0.002 ± 0.0085 | -0.007 ± 0.0042 | -0.015 ± 0.0028 | -0.0645 ± 0.0064 | 0.001 ± 0.0014 | -0.008 ± 0.0057 | -0.007 ± 0.0042 | -0.0005 ± 0.018 | -0.0065 ± 0.025 | -0.0115 ± 0.015 | -0.0175 ± 0.00071
9 | LPS:CCL2/MCP-1 | -0.0235 ± 0.00071 | 0.013 ± 0.025 | -0.0025 ± 0.005 | -0.017 ± 0.023 | -0.0095 ± 0.0021 | -0.011 ± 0.0028 | -0.024 ± 0.018 | -0.102 ± 0.034 | -0.042 ± 0.014 | 0.009 ± 0.045 | 0.005 ± 0.042 | 0.03 ± 0.013 | -0.007 ± 0.05 | -0.014 ± 0.034 | -0.043
10 | MyoF:CXCL8/IL-8 | 0.083 ± 0.04 | 0.154 ± 0.034 | -0.012 ± 0.0028 | 0.006 ± 0.0099 | -0.021 ± 0.0042 | 0.046 ± 0.068 | 0.024 ± 0.067 | 0.0085 ± 0.015 | 0.003 ± 0.014 | -0.0285 ± 0.0092 | -0.0185 ± 0.028 | 0.018 ± 0.054 | -0.0055 ± 0.021 | 0.051 ± 0.0057 | 0.041 ± 0.0085
11 | KF3CT:CCL2/MCP-1 | -0.015 ± 0.0014 | 0.01 ± 0.0099 | -0.031 ± 0.04 | -0.0685 ± 0.023 | -0.026 ± 0.042 | -0.0225 ± 0.021 | -0.0525 ± 0.013 | -0.0145 ± 0.013 | -0.0955 ± 0.018 | -0.0055 ± 0.018 | -0.0245 ± 0.0078 | 0.0205 ± 0.026 | -0.051 ± 0.021 | -0.0475 ± 0.005 | -0.0235 ± 0.005
12 | lMphg:CCL2/MCP-1 | -0.0045 ± 0.0064 | 0.0335 ± 0.044 | -0.0075 ± 0.011 | -0.021 ± 0.021 | 0.0105 ± 0.026 | -0.018 ± 0.054 | -0.053 ± 0.017 | -0.123 ± 0.054 | -0.048 ± 0.0085 | 0.004 | -0.0065 ± 0.012 | 0.0255 ± 0.018 | -0.005 ± 0.0085 | -0.009 ± 0.0014 | 0.004 ± 0.0071
13 | MyoF:PAI-I | 0.0105 ± 0.0035 | 0.0315 ± 0.0078 | -0.005 ± 0.024 | -0.0105 ± 0.012 | 0 ± 0.016 | 0.021 ± 0.016 | 0.0285 ± 0.021 | 0.0575 ± 0.0078 | -0.0055 ± 0.03 | -0.0125 ± 0.013 | -0.0125 ± 0.0064 | 0.005 ± 0.018 | -0.0165 ± 0.015 | -0.016 ± 0.0028 | -0.0165 ± 0.005
14 | 3C:CD54/ICAM-1 | -0.02 ± 0.0042 | -0.0045 ± 0.016 | -0.02 ± 0.0071 | -0.0135 ± 0.005 | -0.003 ± 0.0057 | 0.013 ± 0.011 | 0.002 ± 0.0085 | 0.0065 ± 0.0078 | -0.03 ± 0.014 | -0.0095 ± 0.013 | -0.0115 ± 0.019 | -0.0095 ± 0.025 | -0.003 ± 0.0042 | -0.014 ± 0.011 | 0.0025 ± 0.015
15 | lMphg:SRB-Mphg | -0.011 ± 0.0057 | 0.006 ± 0.017 | 0.012 ± 0.0085 | -0.0005 ± 0.021 | -0.0085 ± 0.005 | 0.002 ± 0.0028 | -0.021 ± 0.0057 | -0.0625 ± 0.013 | 0.0135 ± 0.00071 | 0.0005 ± 0.013 | -0.0045 ± 0.015 | 0.013 ± 0.027 | 0.01 ± 0.011 | 0.0095 ± 0.0092 | 0.0105 ± 0.0021
16 | KF3CT:IL-1alpha | 0.054 ± 0.02 | 0.071 ± 0.014 | -0.009 ± 0.011 | -0.0255 ± 0.015 | 0.0095 ± 0.037 | 0.026 ± 0.025 | 0.03 ± 0.028 | 0.052 ± 0.02 | -0.125 ± 0.02 | -0.0165 ± 0.011 | -0.0265 ± 0.005 | 0.008 ± 0.045 | -0.033 ± 0.025 | -0.0395 ± 0.029 | -0.0335 ± 0.026
17 | 4H:CCL2/MCP-1 | -0.0055 ± 0.019 | 0.016 ± 0.064 | -0.033 ± 0.013 | -0.018 ± 0.025 | 0.025 ± 0.042 | 0.002 ± 0.027 | -0.033 ± 0.0028 | -0.136 ± 0.031 | -0.058 ± 0.0028 | -0.0155 ± 0.032 | -0.039 ± 0.031 | 0.029 ± 0.04 | -0.009 ± 0.0014 | 0.007 ± 0.0085 | -0.006 ± 0.0057
18 | HDF3CGF:SRB | 0.0845 ± 0.0035 | 0.081 ± 0.0042 | -0.0095 ± 0.029 | -0.0105 ± 0.0021 | 0.0375 ± 0.0064 | -0.0045 ± 0.0064 | -0.009 ± 0.052 | -0.002 ± 0.033 | -0.458 ± 0.051 | -0.007 ± 0.0042 | 0.0065 ± 0.016 | -0.0035 ± 0.015 | 0.02 ± 0.0071 | 0.0315 ± 0.005 | 0.033 ± 0.013
19 | MyoF:SRB | 0.004 ± 0.0042 | 0.018 ± 0.0099 | -0.006 ± 0.017 | -0.0045 ± 0.0021 | -0.002 ± 0.0057 | -0.0185 ± 0.0035 | -0.054 ± 0.033 | -0.105 ± 0.0092 | -0.0205 ± 0.0035 | -0.006 ± 0.0042 | -0.0175 ± 0.012 | -0.003 | -0.0025 ± 0.0092 | -0.0015 ± 0.005 | 0.0085 ± 0.012
